Data on 26 molecules can be found in US20250388565A1, “ESTROGEN RECEPTOR ALPHA DEGRADERS AND METHODS OF USE THEREOF” (Relay Therapeutics, Inc., priority 2022, published 2025).

The term DC50 denotes the midpoint of the concentration-degradation curve.

The target in this assay is T1, ERα protein (HiBiT-tagged) in ESR1_HiBiT KI MCF7 cells (Homo sapiens, UniProt P03372).
T1 sequence (P03372 1-595): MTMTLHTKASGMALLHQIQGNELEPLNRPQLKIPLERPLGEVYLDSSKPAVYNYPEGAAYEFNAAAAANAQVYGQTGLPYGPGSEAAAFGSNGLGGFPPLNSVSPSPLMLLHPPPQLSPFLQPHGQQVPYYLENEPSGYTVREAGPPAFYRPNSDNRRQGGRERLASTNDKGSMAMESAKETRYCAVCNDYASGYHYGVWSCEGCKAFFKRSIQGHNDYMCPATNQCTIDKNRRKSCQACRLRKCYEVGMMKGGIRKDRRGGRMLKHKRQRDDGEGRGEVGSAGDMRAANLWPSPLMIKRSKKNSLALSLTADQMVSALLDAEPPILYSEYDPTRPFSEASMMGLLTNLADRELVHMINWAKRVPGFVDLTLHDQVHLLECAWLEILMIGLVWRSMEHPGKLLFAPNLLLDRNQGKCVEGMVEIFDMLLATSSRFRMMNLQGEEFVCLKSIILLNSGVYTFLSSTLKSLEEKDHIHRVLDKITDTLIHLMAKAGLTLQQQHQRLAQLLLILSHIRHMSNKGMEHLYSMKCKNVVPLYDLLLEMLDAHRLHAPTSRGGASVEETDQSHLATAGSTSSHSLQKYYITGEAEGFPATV
Briefly: Nano Glo HiBiT Lytic Degradation Assay. In kind it is cell-based. As to conditions: 6 hours with compound, 14-point dose response 1:3, bell-shape curve fit, half-maximal effect of first Hill model, read-out: MCF7 ESR1 HiBiT - (DC50). In outline: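 HiBiT-tagged endogenous ERα remaining in MCF7 knock-in cells was quantified by lytic luminescence after a 6 h treatment. DC50 values derive from a bell-shaped curve, taken at the first Hill component's half-maximal effect.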
(In general: HiBiT is a short tag that completes a luciferase, so light tracks the accessible tagged protein.)
In the case of `Cc1cc(F)c([C@@H]2CCc3cc(O)ccc3[C@@H]2c2ccc(N3CCC(CN4CCN(c5ccc6c(c5)CN([C@H]5CCC(=O)NC5=O)C6=O)CC4)CC3)cc2)cc1F` [II-76], the DC50 is at least 10000 nM.

In the case of `Cc1cc([C@H]2CCc3cc(O)ccc3[C@H]2c2ccc(N3CCC(CN4CCN(c5ccc6c(c5)CN([C@H]5CCC(=O)NC5=O)C6=O)CC4)CC3)cc2)n(C)n1` (single isomer, unassigned) [Compound I-414], the DC50 was 0.37 nM.

Take `O=C1CC[C@H](N2Cc3cc(N4CCN(CC5CCN(c6ccc(C7c8ccc(O)cc8CCC7C7CCCCC7)cn6)CC5)CC4)ccc3C2=O)C(=O)N1` (stereo in doubt) [Compound I-154, (S)-3-(5-(4-((1-(5-((1S,2R)-2-cyclohexyl-6-hydroxy-1,2,3,4-tetrahydronaphthalen-1-yl)pyridin-2-yl)piperidin-4-yl)methyl)piperazin-1-yl)-1-oxoisoindolin-2-yl)piperidine-2,6-dione]: the DC50 came out at 3300 nM.

`O=C1CC[C@H](N2Cc3cc(N4CCN(CC5CCN(c6ccc([C@@H]7c8ccc(Br)cc8CC[C@@H]7c7ccccc7)cc6)CC5)CC4)ccc3C2=O)C(=O)N1` [II-62]: the DC50 is at least 10000 nM.

Regarding `O=C1CC[C@H](N2Cc3cc(N4CCN(CC5CCN(c6ccc([C@H]7c8ccc(O)cc8CC[C@]78CCc7ccccc78)cc6)CC5)CC4)ccc3C2=O)C(=O)N1` [Compound I-259, (S)-3-(5-(4-((1-(4-((1R,1′R)-6′-hydroxy-2,3,3′,4′-tetrahydro-1′H-spiro[indene-1,2′-naphthalen]-1′-yl)phenyl)piperidin-4-yl)methyl)piperazin-1-yl)-1-oxoisoindolin-2-yl)piperidine-2,6-dione], the half-maximal degradation concentration (DC50) was determined as 98 nM.

For the molecule `O=C1CC[C@H](N2Cc3cc(N4CCN(CC5CCN(c6ccc([C@@H]7c8ccc(O)cc8CC[C@@H]7c7ccc(O)cc7)cc6)CC5)CC4)ccc3C2=O)C(=O)N1` [Compound I-131, (35)-3-[5-[4-[[1-[4-[(1R, 2S)-6-hydroxy-2-(4-hydroxyphenyl)tetralin-1-yl]phenyl]-4-piperidyl]methyl]piperazin-1-yl]-1-oxo-isoindolin-2-yl]piperidine-2,6-dione], the DC50 was determined as 0.03 nM.

In the case of `C[C@H]1O[C@@H](C2CCCCC2)[C@H](c2ccc(N3CCC(CN4CCN(c5ccc6c(c5)CN([C@H]5CCC(=O)NC5=O)C6=O)CC4)CC3)cc2)c2ccc(O)cc21` (single isomer, unassigned) [Compound I-253], the DC50 amounted to 0.45 nM.

With `O=C1CCC(N2Cc3cc(C4=CCN(CC5CCN(c6ccc([C@@H]7c8ccc(O)cc8CC[C@@H]7c7ccccc7)cc6)CC5)CC4)ccc3C2=O)C(=O)N1` (some centres unmarked) [II-104], the DC50 was found to be 22 nM.

Take `O=C1CC[C@H](N2Cc3cc(N4CCN(CC5CCN(c6ccc([C@H]7c8ccc(O)cc8CO[C@H]7c7ccc(C(F)(F)F)cc7)cc6)CC5)CC4)ccc3C2=O)C(=O)N1` [Compound I-350, (S)-3-(5-(4-((1-(4-((3R,4S)-7-hydroxy-3-(4-(trifluoromethyl)phenyl)isochroman-4-yl)phenyl)piperidin-4-yl)methyl)piperazin-1-yl)-1-oxoisoindolin-2-yl)piperidine-2,6-dione]: the DC50 amounted to 20 nM.

For `O=C1CCC(N2Cc3cc(N4CCN(CC5CCN(c6ccc([C@H]7c8ccc(O)cc8CC[C@H]7C7CCCC7)cc6)CC5)CC4)ccc3C2=O)C(=O)N1` (single isomer, unassigned) [Compound I-53], the DC50 is 0.92 nM.

As to `O=C1CC[C@H](N2Cc3cc(N4CCN(CC5CCN(c6ccc([C@@H]7c8ccc(O)cc8COC78CCCCC8)cc6)CC5)CC4)ccc3C2=O)C(=O)N1` [Compound I-123, (S)-3-(5-(4-((1-(4-((R)-7′-hydroxyspiro[cyclohexane-1,3′-isochroman]-4′-yl)phenyl)piperidin-4-yl)methyl)piperazin-1-yl)-1-oxoisoindolin-2-yl)piperidine-2,6-dione], the DC50 came out at 0.31 nM.

As for `Cc1cccc([C@H]2CCc3cc(O)ccc3[C@H]2c2ccc(N3CCC(CN4CCN(c5ccc6c(c5)CN([C@H]5CCC(=O)NC5=O)C6=O)CC4)CC3)cc2)c1` (single isomer, unassigned) [II-28], the DC50 was found to be 20 nM.

For the molecule `C[C@]1(c2ccccc2)CCc2cc(O)ccc2[C@H]1c1ccc(N2CCC(CN3CCN(c4ccc5c(c4)CN([C@H]4CCC(=O)NC4=O)C5=O)CC3)CC2)cc1` [Compound I-147, (S)-3-(5-(4-((1-(4-((1S,2S)-6-hydroxy-2-methyl-2-phenyl-1,2,3,4-tetrahydronaphthalen-1-yl)phenyl)piperidin-4-yl)methyl)piperazin-1-yl)-1-oxoisoindolin-2-yl)piperidine-2,6-dione], the half-maximal degradation concentration (DC50) is 0.42 nM.

As for `C[C@]1(C2CCCCC2)CCc2cc(O)ccc2[C@H]1c1ccc(N2CCC(CN3CCN(c4ccc5c(c4)CN([C@H]4CCC(=O)NC4=O)C5=O)CC3)CC2)cc1` [Compound I-238, (S)-3-(5-(4-((1-(4-((1R,2R)-2-cyclohexyl-6-hydroxy-2-methyl-1,2,3,4-tetrahydronaphthalen-1-yl)phenyl)piperidin-4-yl)methyl)piperazin-1-yl)-1-oxoisoindolin-2-yl)piperidine-2,6-dione], the DC50 was 4 nM.

On to `O=C1CC[C@H](N2Cc3cc(N4CCN(C5CCN(c6ccc([C@@H]7c8ccc(O)cc8CC[C@@H]7c7ccccc7)cc6)CC5)CC4)ccc3C2=O)C(=O)N1` [II-31], for which the DC50 came to 0.9 nM.

Consider `O=C1CC[C@H](N2Cc3cc(N4CCN(CC5CCN(c6ccc([C@@H]7c8ccc(O)cc8C(F)(F)C[C@@H]7c7cc(F)ccc7F)cc6)CC5)CC4)ccc3C2=O)C(=O)N1` [Compound I-316, (S)-3-(5-(4-((1-(4-((1R,2S)-2-(2,5-difluorophenyl)-4,4-difluoro-6-hydroxy-1,2,3,4-tetrahydronaphthalen-1-yl)phenyl)piperidin-4-yl)methyl)piperazin-1-yl)-1-oxoisoindolin-2-yl)piperidine-2,6-dione], for which the DC50 came to 0.3 nM.

With `CC(C1CCN(c2ccc([C@@H]3c4ccc(O)cc4CC[C@@H]3c3ccccc3)cc2)CC1)N1CCN(c2ccc3c(c2)CN([C@H]2CCC(=O)NC2=O)C3=O)CC1` (single isomer, unassigned) [II-44], the DC50 was determined as 2 nM.

On to `O=C1CC[C@H](N2Cc3cc(N4CCN(CC5CCN(c6ccc([C@@H]7c8ccc(O)cc8CC[C@@H]7c7cccc(OC(F)(F)F)c7)cc6)CC5)CC4)ccc3C2=O)C(=O)N1` (single isomer, unassigned) [Compound I-109], for which the DC50 amounted to 1400 nM.

Consider `O=C1CC[C@@H](c2ccc(N3CCC4(CCN(CC5CCN(c6ccc([C@@H]7c8ccc(O)cc8CC[C@@H]7c7ccccc7)cc6)CC5)C4)CC3)cc2)C(=O)N1` (single isomer, unassigned) [Compound I-284], for which the DC50 is at least 10000 nM.

`O=C1CC[C@H](N2Cc3cc(N4CCN(CC5CCN(c6ccc([C@@H]7c8ccc(O)cc8CO[C@@H]7c7cccc(OC(F)(F)F)c7)cc6)CC5)CC4)ccc3C2=O)C(=O)N1` [Compound I-362, (S)-3-(5-(4-((1-(4-((3S,4R)-7-hydroxy-3-(3-(trifluoromethoxy)phenyl)isochroman-4-yl)phenyl)piperidin-4-yl)methyl)piperazin-1-yl)-1-oxoisoindolin-2-yl)piperidine-2,6-dione]: the DC50 is 1 nM.

As to `O=C1CC[C@H](N2Cc3cc(N4CCN(CC5CCN(c6ccc([C@@H]7c8ccc(O)cc8CC[C@@H]7c7ccc8c(c7)CCC8)cc6)CC5)CC4)ccc3C2=O)C(=O)N1` (single isomer, unassigned) [Compound I-412], the DC50 is 332 nM.

As for `O=C1CC[C@H](N2Cc3cc(N4CCN(CC5CCN(c6ccc([C@@H]7c8ccc(O)cc8CO[C@@H]7CC7CC7)cc6)CC5)CC4)ccc3C2=O)C(=O)N1` (single isomer, unassigned) [Compound I-230], the DC50 was determined as 1 nM.

`C[C@@H]1CN(c2ccc3c(c2)CN([C@H]2CCC(=O)NC2=O)C3=O)CCN1CC1CCN(c2ccc([C@@H]3c4ccc(O)cc4CC[C@@H]3c3ccccc3)cc2)CC1` [II-2]: the 50% degradation concentration (DC50) stood at 1 nM.

Turning to `O=C1CCC(N2Cc3cc([C@H]4CCN(CC5CCN(c6ccc([C@@H]7c8ccc(O)cc8CC[C@@H]7c7ccccc7)cc6)CC5)C[C@@H]4F)ccc3C2=O)C(=O)N1` (single isomer, unassigned) [II-89], the DC50 amounted to 1100 nM.

On to `O=C1CC[C@H](N2Cc3cc(N4CCN(CC5CCN(c6ccc([C@H]7c8ccc(O)cc8CC[C@H]7c7ccc8c(c7)CC8)cc6)CC5)CC4)ccc3C2=O)C(=O)N1` (single isomer, unassigned) [Compound I-58], for which the DC50 worked out at 0.048 nM.

Take `O=C1CC[C@H](N2Cc3cc(N4CCN(CC5CCN(c6ccc([C@H]7c8ccc(O)cc8CC[C@H]7C7CCCCC7)cc6F)CC5)CC4)ccc3C2=O)C(=O)N1` [Compound I-236, (S)-3-(5-(4-((1-(4-((1S,2S)-2-cyclohexyl-6-hydroxy-1,2,3,4-tetrahydronaphthalen-1-yl)-2-fluorophenyl)piperidin-4-yl)methyl)piperazin-1-yl)-1-oxoisoindolin-2-yl)piperidine-2,6-dione]: the DC50 amounted to 72 nM.
